Values of other authors in patent publication US20120020948A1, “DAG-TYPE AND INDIRECT PROTEIN KINASE C ACTIVATORS AND ANTICOAGULANT FOR THE TREATMENT OF STROKE” (priority 2010, published 2012).

Legend:
PKC = conditions: for affinity for PKC: A-ring bryologs

SMILES	affinity for PKC (PKC) [nM]	also measured
CC1=CC[C@H](C)C(C)(C)[C@@H]1/C=C/C(C)=C/CC[C@@]1(CO)[C@H](CCCO)/C(=C(/C)C=O)CC[C@]1(C)O [Iripallidal]	–	GI50 (concentration required to inhibit growth by 50%) (NCI 60 cell line screen): micromolar to nanomolar range
CCCCCCCC(=O)OC1C(=CC(=O)OC)CC2CC(CO)OC(=O)CC(O)CCOC(CCCc3ccc(Br)cc3)CC3CCOC(C=CC(C)(C)C1(O)O2)O3 (stereo not drawn) [bryolog 5]	1.9	–
CCCCCCCC(=O)OC1C(=CC(=O)OC)CC2CC(CO)OC(=O)CC(O)CCOC(C(C)(C)C)CC3CCOC(C=CC(C)(C)C1(O)O2)O3 (stereo not drawn) [bryolog 3]	6.5	–
CCCCCCCC(=O)O[C@H]1/C(=C/C(=O)OC)C[C@H]2C[C@H](CO)OC(=O)C[C@H](O)C[C@@H]3CCC[C@H](C[C@@H]4CCO[C@H](/C=C/C(C)(C)[C@]1(O)O2)O4)O3 [Analog 1]	–	PKC Affin (PKC): 0.25 nM; affinity for PKC (in words) (PKC): highest affinity for PKC
CCCCCCCC(=O)OC1C(=CC(=O)OC)CC2CC(CO)OC(=O)CC(O)CCOC(c3ccccc3)CC3CCOC(C=CC(C)(C)C1(O)O2)O3 (stereo not drawn) [bryolog 4]	2.3	–
